Laboratory results taken from patent publication US11833137B2, “Substituted chromenones, IRE1 inhibitors, and methods of using same” (The Wistar Institute, priority 2018, dated 2023).
Entries after “also recorded” stand apart in the source; their conditions may differ. Values belong to the compound of their own block, whether it stands above or below them.

Legend:
[1] = system: XBP-1s expression, LPS-stimulated primary mouse B cells; test: XBP-1s immunoblot in LPS-stimulated primary B cells; format: cell-based; details: 2.5 or 5 μM for 2 h
Procedure: FIG. 8 illustrates chemical structures of 6, 4, 7, 8, and 9. Primary B cells purified from spleens of wild-type mice were stimulated with LPS for 72 h, subsequently treated with indicated inhibitors at 2.5 or 5 μM for 2 h, lysed, and analyzed for the expression of indicated proteins by immunoblots.
(§1) Cells were lysed using RIPA buffer (10 mM Tris-HCl, pH 7.4, 150 mM NaCl, 1% NP-40, 0.5% sodium deoxycholate, 0.1% SDS, and 1 mM EDTA) supplemented with protease inhibitors (Roche). Protein concentrations were determined by BCA assays (Pierce).
(§2) Samples were boiled in SDS-PAGE sample buffer (62.5 mM Tris-HCl, pH 6.8, 2% SDS, 10% glycerol, 0.1% bromophenol blue) with β-ME and analyzed by SDS-PAGE. Proteins were transferred to nitrocellulose membranes, blocked in 5% nonfat milk (wt/vol in PBS), and immunoblotted with indicated primary antibodies and appropriate horseradish peroxidase-conjugated secondary antibodies. Immunoblots were developed using Western Lighting Chemiluminescence Reagent (PerkinElmer).
LPS-stimulated primary mouse B cells were similarly treated with the same inhibitors at 2.5 or 5 μM for 2 h. […] HPLC degradation experiments confirmed that this was indeed the case (FIG. 2G).

[2] = Compound degradation HPLC assay; format: physicochemical; details: 37° C.
Procedure: A 20 mM DMSO stock solution of analyte compounds (7, 8, D-F07, PC-D-F07 and TC-D-F07) were diluted to 400 μM with PBS, pH 7.4, or to 800 μM with RMPI plus 10% FBS culture media (experiments with TC-D-F07 were performed using RPMI without FBS). After incubation at 37° C., aliquots at various time points were injected onto an analytical HPLC instrument and the peaks integrated (UV monitored at 220 nm). Intact compound relative to t=0 was plotted as a function of time.

[3] = system: XBP-1s expression, 5TGM1 cells; test: XBP-1s immunoblot in 5TGM1 multiple myeloma cells; format: cell-based, mouse; details: for inhibition of XBP-1s expression, short term: 2.5 μM for 1, 2 or 4 h; for suppression of XBP-1s expression, long term: 10 μM for a course of 3 days
Procedure: 5TGM1 mouse multiple myeloma cells, primary mouse B cells, primary mouse Eμ-TCL1 CLL cells, and human CLL cell lines (MEC2 and WaC3) were cultured at 37° C. in a 5% CO2 incubator using RPMI 1640 media (Gibco) supplemented with 10% heat-inactivated FBS, 2 mM L-glutamine, 100 U/mL penicillin G sodium, 1 mM sodium pyruvate, 0.1 mM non-essential amino acids, 100 μg/mL streptomycin sulfate and 0.1 mM β-mercaptoethanol (β-ME).
as §1, §2
To develop inhibitors with improved potency to target the IRE1/XBP-1 pathway, tricyclic chromenone-based IRE1 RNase inhibitors with different amine group (R^1) were synthesized and compared: allyloxycarbonyl (alloc) in B-H09 (1), —H in C-B06 (2), and —CH3 in C-D06 (3) (FIG. 1A). 5TGM1 multiple myeloma cells were chosen to evaluate inhibitory effects of these inhibitors because they have constitutively activated IRE1/XBP-1 pathways.

WaC3 cells = test: Cell proliferation XTT assay, WaC3; format: cell-based, human; details: 20 μM for a course of 3 days
MEC2 cells = test: Cell proliferation XTT assay, MEC2; format: cell-based, human; details: indicated concentrations, 24 h
[4] = Fluorescence stability (decomposition) in aqueous solution; format: physicochemical; details: 37° C.
Procedure: (FIG. 2B) 5TGM1 cells were treated with DMSO or with 20 μM 2, 4, 3, or 7 dissolved in DMSO for 3 days and subjected to XTT assays. Percentages of growth were determined by comparing treated groups with control groups (DMSO). Each data point derived from four independent groups receiving exactly the same treatment was plotted as mean±SD. Results are representative of three independent experiments. […] The values of I/I0 were plotted as a function of time and shown in the inset. I0 was the initial fluorescence intensity of 4 at 0 h. […] The values of I/I0 were plotted as a function of time and shown in the inset. I0 was the initial fluorescence intensity of 5 at 0 h. […] (FIG. 2G) The decomposition rates of 7 and 8 were plotted as a function of time in RPMI media incubated at 37° C. Aliquots were analyzed by HPLC and the peaks integrated.
FIGS. 5A-5J illustrate the finding that installation of a boronate cage cleavable by H2O2 stabilizes the 1,3-dioxane acetal protective group of D-F07 to allow for temporal inhibition of XBP-1s upon contact with H2O2. (FIG. 5A) A scheme showing that installation of a boronate-caged group stabilizes the 1,3-dioxane acetal protective group to allow for H2O2-mediated release of intact D-F07. (FIG. 5B) The fluorescence of BC-D-F07a (2.5 μM in the DMSO/PBS solution (v/v=1:99), Ex=360 nm) increases upon incubation with 0 to 200 μM hydrogen peroxide at room temperature for 1 h. (FIG. 5C) The fluorescence of BC-D-F07b (2.5 μM in the DMSO/PBS solution (v/v=1:99), Ex=360 nm) increases upon incubation with 0 to 2 mM hydrogen peroxide at 37° C. for 1 h. […] I0 was the initial fluorescence intensity of D-F07, BC-D-F07a or BC-D-F07b at 0 h. (FIG. 5E) The levels of hydrogen peroxide produced by 5TGM1, 72-h LPS-stimulated primary CLL, MEC2, and WaC3 cells were measured by Amplex Red with or without the addition of extracellular catalase (500 U/mL). (FIG. 5F) 5TGM1 cells were treated with BC-D-F07a at increasing concentrations for 24 h, lysed, and analyzed for the expression of indicated proteins by immunoblots. (FIG. 5G) CD5+ CLL cells purified from spleens of Eμ-TCL1 mice were stimulated with […], subsequently treated with BC-D-F07a at 20 μM for 16 h, and then incubated with hydrogen peroxide at indicated concentrations for another 4 h. Cells were lysed and analyzed for the expression of indicated proteins by immunoblots. […] Cells were lysed and analyzed for the expression of indicated proteins by immunoblots. […] Percentages of growth were determined by comparing treated groups with control groups (DMSO). […]
UV-vis and fluorescence spectra were carried out on a BioTek SYNERGY™ NEO2 instrument (96 well plate).

[5] = Solubility in organic solvent (DMSO); format: physicochemical; details: such as DMSO
5TGM1 cells = test: Cell proliferation XTT assay, 5TGM1; format: cell-based, mouse; details: 0, 2.5, 5, 10 or 20 μM, 24 h
Procedure: 5TGM1 cells were suspended in phenol red-free RPMI media, seeded in 96-well cell culture plates, and treated with indicated IRE1 inhibitors (20 μM, unless indicated otherwise). At indicated time points, cells were spun down and cell proliferation was assessed by XTT assays (Roche) according to the manufacturer's instructions. Briefly, 50 μl XTT labeling reagent, 1 μl electron-coupling reagent, and 100 μl phenol red-free RPMI media were combined and applied to each well of the 96-well plates. Cells were incubated for 4 h in a CO2 incubator to allow for the yellow tetrazolium salt XTT to be cleaved by mitochondrial dehydrogenases of metabolically active cells to form the orange formazan dye, which can be quantified at 492 nm using a BioTek SYNERGY™ NEO2 Multimode Reader.

hydrolysis rate (HPLC degradation) ([2]; RPMI media): faster hydrolysis relative to 7
SMILES: CC(=O)N/N=C/c1c(O)ccc2c3c(c(=O)oc12)CN(C)CC3 [Compound 8, (E)-N′-((8-hydroxy-3-methyl-5-oxo-1,3,4,5-tetrahydro-2H-chromeno[3,4-c]pyridin-7-yl)methylene)acetohydrazide]
suppression of XBP-1s expression [1]: rapidly suppressed the expression of XBP-1s
inhibition of XBP-1s expression, short term [3]: rapidly inhibited XBP-1s; also recorded: effectively inhibit the expression of XBP-1s for longer than 4 h; also recorded: inhibited the expression of XBP-1s more rapidly than 7
suppression of XBP-1s expression, long term [3]: lost its inhibitory effect after treatment for 2 days

SMILES: COc1cc2c3c(c(=O)oc2c(/C=N/NC(C)=O)c1O)CN(C)CC3 [Compound 10, (E)-N′-((8-hydroxy-9-methoxy-3-methyl-5-oxo-1,3,4,5-tetrahydro-2H-chromeno[3,4-c]pyridin-7-yl)methylene)acetohydrazide]
growth suppression (XTT) (WaC3 cells): initially more potent than 7 and 8 in suppressing WaC3 cell growth; also recorded: incapable of continuously inhibiting the growth of WaC3 cells
inhibition of XBP-1s expression, short term [3]: suppressed the expression of XBP-1s more rapidly than 8
suppression of XBP-1s expression, long term [3]: exhibited a long-term inhibitory effect; also recorded: slightly recovered in cells treated with 10 for 3 days

SMILES: N[C@@H](CSc1ccc([N+](=O)[O-])cc1[N+](=O)[O-])C(=O)O [Compound 12, (S-2,4-Dinitrophenyl)cysteine]
cytotoxicity / growth inhibition (XTT) (MEC2 cells): not cytotoxic to MEC2 cells
expression of XBP-1s (ER stress induction) ([3]; 10 μM, 0 to 24 h): time-dependent increased expression of XBP-1s

SMILES: COc1cc2c3c(c(=O)oc2c(C2OCCCO2)c1B1OC(C)(C)C(C)(C)O1)CN(C)CC3 [BC-D-F07b, 7-(1,3-dioxan-2-yl)-9-methoxy-3-methyl-8-(4,4,5,5-tetramethyl-1,3,2-dioxaborolan-2-yl)-3,4-dihydro-1H-chromeno[3,4-c]pyridin-5(2H)-one]
hydrolysis of 1,3-dioxane acetal by fluorescence decay ([4]; aqueous solution, 0 to 48 h, versus D-F07): stabilized the 1,3-dioxane acetal protecting group

solubility relative to 4 [5]: at least 16 times less soluble
SMILES: COc1cc2c3c(c(=O)oc2c(C2OCCCO2)c1O)CNCC3 [Compound 11, 7-(1,3-dioxan-2-yl)-8-hydroxy-9-methoxy-1,2,3,4-tetrahydro-5H-chromeno[3,4-c]pyridin-5-one]
suppression of XBP-1s expression, long term [3]: more potent than 4 in suppressing XBP-1s expression; also recorded: less potent than D-F07 in suppressing the expression of XBP-1s

SMILES: COc1cc2c3c(c(=O)oc2c(C2OCCCO2)c1OS(=O)(=O)c1ccc([N+](=O)[O-])cc1[N+](=O)[O-])CN(C)CC3 [TC-D-F07, 7-(1,3-dioxan-2-yl)-9-methoxy-3-methyl-5-oxo-1,3,4,5-tetrahydro-2H-chromeno[3,4-c]pyridin-8-yl 2,4-dinitrobenzenesulfonate]
cytotoxicity / growth inhibition (XTT) (MEC2 cells): potently inhibited the growth of these cells
cytotoxicity (XTT) (5TGM1 cells): more cytotoxic than D-F07
intact compound ([2]; 4-h incubation in both PBS and RPMI media): 90%
decomposition rate (HPLC) versus D-F07 ([2]; PBS): slower decomposition rate
suppression of XBP-1s expression ([3]; 2.5 μM, 3 h): significantly suppress the expression of XBP-1s
levels of XBP-1s, time course ([3]; 2.5 μM, 12 h): the levels of XBP-1s began to recover
levels of XBP-1s, time course ([3]; 10 μM, 0 to 12 h): initially increased after 3-h treatment and subsequently decreased in response to continuous 12-h treatment
levels of XBP-1s ([3]; 10 and 20 μM, 3 h): levels of XBP-1s increased

fluorescence intensity remaining (decomposition) ([4]; PBS with 1% DMSO, 48 h, from 100%): approximately 60%
SMILES: CC1(C)COC(c2c(O)ccc3c4c(c(=O)oc23)CNCC4)OC1 [Compound 5, 7-(5,5-dimethyl-1,3-dioxan-2-yl)-8-hydroxy-3,4-dihydro-1H-chromeno[3,4-c]pyridin-5(2H)-one]
